Measured values published in patent US10815222B2, “Compounds for use in the treatment of kinetoplastid infection” (C.N.C.C.S. S.c.a.r.l. COLLEZIONE NAZIONALE DEI COMPOSTI …, priority 2016, dated 2020).

Each compound was assayed on Bloodstream form of Trypanosoma brucei, strain Lister 427 (assay: Trypanosoma brucei growth inhibition assay (CellTiter-Glo, 24 h)). Settings: Trypanosoma brucei; T. Brucei Growth Inibition Assay, class symbols; read-out: T. Brucei GI EC50.
Format: cell-based
Method: Bloodstream form of Trypanosoma brucei, strain Lister 427 (provided by Prof. Miguel Navarro, Instituto de Parasitologia y Biomedicina “Lopez-Neyra” Avda. Conocimiento S/N Parque Tecnologico Ciencias de la Salud—Spain; ref. Navarro M. and Cross G. A. M. Molecular and Cellular Biology, 1996, Vol. 16, No. 7, pp. 3615-3625) were grown in IMDM Iscove's Modified Dulbecco's Medium (SIGMA #17633) supplemented with: 3.024 g/l sodium bicarbonate, hypoxanthine 1 mM, thymidine 0.16 mM, bathocuprione sulfonic acid 0.05 mM, cysteine 1.5 mM, ß-mercaptoethanol […] and 10% foetal bovine serum (heat-inactivated at 56° C. for 30 min). Parasites were grown at 37° C. in flasks with vented caps in a 5% CO2 incubator to a maximum cell density of about 2×10^6/ml and diluted every two-three days.
The compounds of the invention were dissolved in DMSO and transferred to assay plates by acoustic droplet ejection (ATS-100, EDC Biosystems, USA) in order to obtain an appropriate concentration and to keep the concentration of DMSO below or equal to 0.25% in the final assay volume of 30 μL. 1500 parasites resuspended in 30 μL of culture medium were then transferred to each well of a 384-well plate.
After an incubation period of 24 hours at 37° C., each well is added 15 μl of CellTiter-Glo® Reagent (Promega) and incubated at room temperature. 5-10 min post incubation, the plate is read using a luminometer (ViewLux®). A known inhibitor of the growth of T. brucei was used as the reference positive control.

Question: With `CCC(=O)CCCN1CCN(C(=O)Cc2c(C)[nH]c3ccc(OC)cc23)C(c2ncc(-c3ccccc3)[nH]2)C1` (stereo not drawn) as the compound, how does the EC50 read?
Answer: Its EC50 is 0.1 to 0.5 µM.

Question: Which EC50 does the source give for `COc1ccc2nc(C(F)(F)F)n(CC(=O)N3CCN(Cc4cocn4)CCC3c3ncc(-c4cc5ccccc5nc4OC)[nH]3)c2c1` (stereo not drawn) [2-(6-methoxy-2-(trifluoromethyl)-1H-benzo[d]imidazol-1-yl)-1-(7-(5-(2-methoxyquinolin-3-yl)-1H-imidazol-2-yl)-4-(oxazol-4-ylmethyl)-1,4-diazepan-1-yl)ethan-1-one] here?
Answer: The EC50 was less than 0.1 µM.

Question: How did the EC50 turn out when `COc1nc2ccccc2cc1-c1cnc(C2CN(CC3CCOC3)CCN2C(=O)Cn2ccc3cc(C#N)ccc32)[nH]1` (stereo not drawn) was run?
Answer: The EC50 was 0.51 to 1 µM.

Question: With `COc1nc2ccccc2cc1-c1cnc(C2CN(CC3CCOC3)CCN2C(=O)Cn2c(C#N)nc3ccccc32)[nH]1` (stereo not drawn) as the compound, how does the EC50 read?
Answer: Its EC50 is 1.01 to 5 µM.

Question: How did the EC50 turn out when `COc1ccc2nc(C(F)(F)F)n(CC(=O)N3C[C@@H](NC4CCOC4)CC[C@H]3c3ncc(-c4cc5ccccc5nc4OC)[nH]3)c2c1` (stereo partly drawn) was run?
Answer: The EC50 was 0.51 to 1 µM.

Question: `COc1nc2ccccc2cc1-c1cnc([C@@H]2CN(CC3CCOC3)CCN2C(=O)Cn2c(S(C)(=O)=O)nc3ccccc32)[nH]1` (stereo partly drawn) was tested. Which EC50 did it give?
Answer: The EC50 was 0.1 to 0.5 µM.

Question: `COc1nc2ccccc2cc1-c1cnc([C@@H]2CN(CC3CCOC3)CCN2C(=O)Cn2c(C(F)(F)F)nc3ncccc32)[nH]1` (stereo partly drawn) was tested. Which EC50 did it give?
Answer: Its EC50 is 1.01 to 5 µM.

Question: For `COc1ccc2[nH]c(C)c(CC(=O)N3CCN(Cc4ccn(C)n4)CCC3c3ncc(-c4cc5ccccc5nc4OC)[nH]3)c2c1` (stereo not drawn) [2-(5-methoxy-2-methyl-1H-indol-3-yl)-1-(7-(5-(2-methoxyquinolin-3-yl)-1H-imidazol-2-yl)-4-((1-methyl-1H-pyrazol-3-yl)methyl)-1,4-diazepan-1-yl)ethan-1-one], which EC50 is on record?
Answer: The EC50 was less than 0.1 µM.

Question: How did the EC50 turn out when `COc1nc2ccccc2cc1-c1cnc([C@@H]2CN(CC3CCOC3)CCN2C(=O)Cc2noc3ccc(F)cc23)[nH]1` (stereo partly drawn) was run?
Answer: Its EC50 is 1.01 to 5 µM.

Question: `COc1ccc2nc(C(F)(F)F)n(CC(=O)N3CC[C@H](N[C@@H]4CCOC4)C[C@H]3c3ncc(-c4cc5ccccc5nc4OC)[nH]3)c2c1` [2-(6-methoxy-2-(trifluoromethyl)-1H-benzo[d]imidazol-1-yl)-1-((2S,4S)-2-(5-(2-methoxyquinolin-3-yl)-1H-imidazol-2-yl)-4-(((R)-tetrahydrofuran-3-yl)amino)piperidin-1-yl)ethan-1-one] was tested. Which EC50 did it give?
Answer: The EC50 was less than 0.1 µM.

Question: `COc1ccc2nc(C(F)(F)F)n(CC(=O)N3CCN(C(C)C)CCC3c3ncc(-c4cc5ccccc5nc4OC)[nH]3)c2c1` (stereo not drawn) was tested. Which EC50 did it give?
Answer: The EC50 was 0.1 to 0.5 µM.

Question: Which EC50 does the source give for `COc1nc2ccccc2cc1-c1cnc([C@@H]2CN(CC3CCOC3)CCN2C(=O)Cn2c(C)nc3cc(C(F)(F)F)ccc32)[nH]1` (stereo partly drawn) here?
Answer: Its EC50 is 0.1 to 0.5 µM.

Question: How did the EC50 turn out when `COc1ccc2nc(C)n(CC(=O)N3CCOCC3c3ncc(-c4cc5ccccc5nc4OC)[nH]3)c2c1` (stereo not drawn) was run?
Answer: Its EC50 is 1.01 to 5 µM.

Question: `COc1nc2ccccc2cc1-c1cnc(C2CN(CC3CCOC3)CCN2C(=O)c2cc3cc(OCc4ccccc4)ccc3[nH]2)[nH]1` (stereo not drawn) was tested. Which EC50 did it give?
Answer: The EC50 was 1.01 to 5 µM.

Question: How did the EC50 turn out when `CCC(=O)CCCN1CCN(C(=O)Cc2c(C)[nH]c3ccc(OC)cc23)C(c2ncc(-c3ccc4ccccc4c3)o2)C1` (stereo not drawn) [6-(4-(2-(5-methoxy-2-methyl-1H-indol-3-yl)acetyl)-3-(5-(naphthalen-2-yl)oxazol-2-yl)piperazin-1-yl)hexan-3-one] was run?
Answer: Its EC50 is 1.01 to 5 µM.

Question: How did the EC50 turn out when `CN1CCN(C(=O)C2(c3ccccc3)CC2)C(c2ncc(-c3ccc4ccccc4c3)[nH]2)C1` (stereo not drawn) was run?
Answer: Its EC50 is 1.01 to 5 µM.

Question: How did the EC50 turn out when `COc1ccc2nc(C)n(CC(=O)N3CCN(C4CCN(C(C)=O)CC4)C[C@H]3c3ncc(-c4cc5ccccc5nc4OC)[nH]3)c2c1` was run?
Answer: The EC50 was 0.51 to 1 µM.

Question: For `COc1nc2ccccc2cc1-c1cnc(C2CN(Cc3ccccc3)CCN2C(=O)Cc2c(C)[nH]c3ccc(F)cc23)[nH]1` (stereo not drawn), which EC50 is on record?
Answer: The EC50 was 0.1 to 0.5 µM.

Question: Which EC50 does the source give for `COc1ccc2nc(C)n(CC(=O)N3CCN(C)CCC3c3ncc(-c4cc5ccccc5nc4OC)[nH]3)c2c1` (stereo not drawn) here?
Answer: The EC50 was 1.01 to 5 µM.

Question: With `COc1ccc2nc(C(F)(F)F)n(CC(=O)N3CCN(CC4CCN(C(C)=O)C4)C[C@H]3c3ncc(-c4cc5ccccc5nc4OC)[nH]3)c2c1` (stereo partly drawn) [1-((2S)-4-((1-acetylpyrrolidin-3-yl)methyl)-2-(5-(2-methoxyquinolin-3-yl)-1H-imidazol-2-yl)piperazin-1-yl)-2-(6-methoxy-2-(trifluoromethyl)-1H-benzo[d]imidazol-1-yl)ethan-1-one] as the compound, how does the EC50 read?
Answer: Its EC50 is less than 0.1 µM.

Question: `COc1ccc2nc(C(F)(F)F)n(CC(=O)N3CCN(Cc4ccn(C)n4)CCC3c3ncc(-c4cc5ccccc5nc4OC)[nH]3)c2c1` (stereo not drawn) [2-(6-methoxy-2-(trifluoromethyl)-1H-benzo[d]imidazol-1-yl)-1-(7-(5-(2-methoxyquinolin-3-yl)-1H-imidazol-2-yl)-4-((1-methyl-1H-pyrazol-3-yl)methyl)-1,4-diazepan-1-yl)ethan-1-one] was tested. Which EC50 did it give?
Answer: The EC50 was less than 0.1 µM.

Question: For `COc1ccc2nc(C)n(CC(=O)N3CCN(CC4CCOC4)C[C@H]3c3ncc(/C=C/c4ccccc4)[nH]3)c2c1` (stereo partly drawn) [2-(6-methoxy-2-methyl-1H-benzo[d]imidazol-1-yl)-1-((2S)-2-(5-((E)-styryl)-1H-imidazol-2-yl)-4-((tetrahydrofuran-3-yl)methyl)piperazin-1-yl)ethan-1-one], which EC50 is on record?
Answer: The EC50 was 1.01 to 5 µM.

Question: For `COc1nc2ccccc2cc1-c1cnc([C@@H]2CN(CC3CCOC3)CCN2C(=O)Cn2c(C)nc3ccc(C(F)(F)F)cc32)[nH]1` (stereo partly drawn) [1-((2S)-2-(5-(2-methoxyquinolin-3-yl)-1H-imidazol-2-yl)-4-((tetrahydrofuran-3-yl)methyl)piperazin-1-yl)-2-(2-methyl-6-(trifluoromethyl)-1H-benzo[d]imidazol-1-yl)ethan-1-one], which EC50 is on record?
Answer: The EC50 was less than 0.1 µM.

Question: With `COc1ccc2nc(C)n(CC(=O)N3CC[C@H](NCC4CCOC4)C[C@H]3c3ncc(-c4cc5ccccc5nc4OC)[nH]3)c2c1` (stereo partly drawn) as the compound, how does the EC50 read?
Answer: The EC50 was 1.01 to 5 µM.

Question: For `COc1ccc2nc(C(F)(F)F)n(CC(=O)N3CC[C@@H](N(C)C)C[C@H]3c3ncc(-c4cc5ccccc5nc4OC)[nH]3)c2c1`, which EC50 is on record?
Answer: Its EC50 is 0.51 to 1 µM.

Question: For `COc1nc2ccccc2cc1-c1cnc([C@@H]2CN(Cc3cscn3)CCN2C(=O)Cn2c(C(F)(F)F)nc3ccccc32)[nH]1` [(S)-1-(2-(5-(2-methoxyquinolin-3-yl)-1H-imidazol-2-yl)-4-(thiazol-4-ylmethyl)piperazin-1-yl)-2-(2-(trifluoromethyl)-1H-benzo[d]imidazol-1-yl)ethan-1-one], which EC50 is on record?
Answer: Its EC50 is less than 0.1 µM.

Question: For `Cn1cc(CC(=O)N2CCN(CC3CCOC3)CC2c2ncc(-c3ccc4ccccc4c3)[nH]2)c2ccccc21` (stereo not drawn), which EC50 is on record?
Answer: Its EC50 is 0.1 to 0.5 µM.

Question: `CN1CCN(C(=O)Cc2ccccc2)[C@H](c2ncc(-c3ccc4ccccc4c3)[nH]2)C1` was tested. Which EC50 did it give?
Answer: The EC50 was 1.01 to 5 µM.

Question: Which EC50 does the source give for `COc1nc2ccccc2cc1-c1cnc(C2CN(CC3CCOC3)CCN2C(=O)Cc2c[nH]c3ccncc23)[nH]1` (stereo not drawn) here?
Answer: Its EC50 is 1.01 to 5 µM.

Question: With `COc1ccc2nc(C(F)(F)F)n(CC(=O)N3CCN(Cc4nccs4)CCC3c3ncc(-c4cc5ccccc5nc4OC)[nH]3)c2c1` (stereo not drawn) [2-(6-methoxy-2-(trifluoromethyl)-1H-benzo[d]imidazol-1-yl)-1-(7-(5-(2-methoxyquinolin-3-yl)-1H-imidazol-2-yl)-4-(thiazol-2-ylmethyl)-1,4-diazepan-1-yl)ethan-1-one] as the compound, how does the EC50 read?
Answer: The EC50 was less than 0.1 µM.

Question: `COc1ccc2cc(C)n(CC(=O)N3CCCCC3c3ncc(-c4cc5ccccc5nc4OC)[nH]3)c2c1` (stereo not drawn) was tested. Which EC50 did it give?
Answer: The EC50 was 0.1 to 0.5 µM.

Question: With `COc1ccc2nc(C)n(CC(=O)N3CCN(CC4COC4)C[C@H]3c3ncc(-c4cc5ccccc5nc4OC)[nH]3)c2c1` [(S)-2-(6-methoxy-2-methyl-1H-benzo[d]imidazol-1-yl)-1-(2-(5-(2-methoxyquinolin-3-yl)-1H-imidazol-2-yl)-4-(oxetan-3-ylmethyl)piperazin-1-yl)ethan-1-one] as the compound, how does the EC50 read?
Answer: Its EC50 is less than 0.1 µM.

Question: `O=C(Cc1n[nH]c2ccccc12)N1CCN(CC2CCOC2)CC1c1ncc(-c2ccc3ccccc3c2)[nH]1` (stereo not drawn) was tested. Which EC50 did it give?
Answer: The EC50 was 1.01 to 5 µM.
